Measured values as given in patent US20070212723A1, “Human sodium channel isoforms” (priority 2006, published 2007).

Assays:
H9c2 cardiomyocytes = conditions: H9c2, serum free medium, 48 h
Description: The rat embryonic cardiomyocyte cell line, H9c2 (ATCC cat # CRL-1446), or acutely isolated neonatal rat heart cardiomyocytes were used. Rat neonatal ventricular cells were isolated from 3-day-old Sprague-Dawley rats (Charles River Laboratories Wilmington, Mass.) using a kit and following the manufacturer's instructions (Worthington Biochemical Corp. Lakewood, N.J.). Cells cultured in Dulbecco's modified Eagle's medium (DMEM; ATCC, Manassas, Va.) with 10% fetal calf serum (ATCC) under standard tissue culture conditions at 37° C. to 70-80% confluence were exposed to AngII (Sigma, St. Louis, Mo.) or H2O2 (Sigma) in serum free culture medium (SFM) for a total of 48 h in triplicate in 24 well plates. Experiments were repeated three times. After dissociation with 0.125% trypsin-EDTA, 20 μL of 0.4% Trypan-blue (Sigma, St. Louis, Mo.) was added to each well, and a Trypan-blue exclusion viability assay was performed.

[1] = test system: scn5a promoter with mutated NF-κB binding site; test: Promoter-reporter assay with mutated NF-κB binding site (APS3-NF-κBm) in H9c2 cells; type: cell-based, rat; conditions: H9c2, 48 h, 100 nM AngII or 20 μM H2O2
[2] = test system: cardiac sodium channel (scn5a) mRNA; test: Quantitative real-time RT-PCR of scn5a transcripts in acutely isolated neonatal cardiomyocytes; type: cell-based, rat
[3] = target: T1, NF-κB binding to the scn5a promoter (Rattus norvegicus, UniProt Q63369+Q7TQN4); test: Electrophoretic mobility shift assay with H9c2 nuclear extracts; type: cell-based
T1 construct: endogenous in cells; host or cells: H9c2 cardiomyocytes (nuclear extract / cross-linked chromatin)
Description: Approximately 5×10^6 cells were scraped for nuclear protein extraction by nuclear extract kit (Activemotif, Carlsbad, Calif.). A double-stranded oligonucleotide containing the consensus-binding sequence (bold) for […] ID NO. 32)) and NF-Kb mutant sequence ([NT] ID NO. 33)) from scn5a promoter were used as probes to assay for binding activity of the nuclear extracts. Protein-DNA complexes were detected using biotin end-labeled double-stranded DNA probes prepared by annealing complementary oligonucleotides. Oligonucleotides were labeled in a reaction using terminal deoxynucleotide transferase and biotin-N4-CTP (Pierce, Rockford, Ill.) following the biotin 3' end DNA labeling kit manual. The binding reaction was performed using the LightShift kit (Pierce). Briefly, 30 μg of nuclear extracts and binding buffer were incubated on ice for 5 min in a volume of 20 μL, then the labeled probe (20 fmol) was added, and the reaction was allowed to incubate for an additional 25 min. Following electrophoresis, the DNA-protein complexes were transferred onto nylon membranes and detected using chemiluminescence. TNF-α activated H9c2 cell nuclear extract (5 μg) was used as positive control. The reaction products were separated on a 6% retardation gel. Specificity was confirmed by addition of unlabelled probe in 200-fold excess.

[4] = test system: cardiac sodium channel (scn5a) mRNA; test: Quantitative real-time RT-PCR of scn5a transcripts in H9c2 cells; type: cell-based, rat
[5] = target: T2, NF-κB p50/p65 subunits on the cardiac Na+ channel promoter (Rattus norvegicus, UniProt Q63369+Q7TQN4); test: Chromatin immunoprecipitation (ChIP) assay in H9c2 cells; type: cell-based
T2 construct: endogenous in cells; host or cells: H9c2 cardiomyocytes (nuclear extract / cross-linked chromatin)
Procedure: Formaldehyde cross-linking and chromatin immunoprecipitation was performed as described in manufactory's manual (ChIP-IT™ kit, Activemotif). Briefly, proteins were crosslinked with chromatin using 1% formaldehyde in H9c2 cells with or without treatment. The cells were subsequently sonicated in lysis buffer, and an aliquot of the lysate was used in a PCR reaction. The remaining lysate was cleared with protein G beads. One half of the cleared lysate was incubated with p50 or p65 antibody, while the other half was used as a negative control without the antibody. After reversing the cross-linking, the immuno-complex was digested with proteinase K, and the DNA was purified. DNA was analyzed by PCR with the PicoMax Polymerase (Stratagene, La Jolla, Calif.) and primers specific to the APS3 promoter region.

scn5a promoter = test: scn5a promoter-reporter (pGL3-APS3) dual-luciferase assay in H9c2 cells; type: cell-based, rat; conditions: APS3 construct, H9c2, 20 μM H2O2, 48 h
[6] = test system: cardiac Na+ channel current; test: Patch-clamp determination of Na+ current in H9c2 cells; type: cell-based, rat; conditions: H9c2, 20 μmol/L H2O2, 48 h, step to -10 mV
Procedure: Three hours prior to the start of the patch-clamp experiments, H9c2 cells were trypsinized and plated on treated plastic coverslips. H9c2 cells were treated with or without H2O2 as indicated. Glass pipettes were pulled on a Sutter Model P-97 horizontal puller to a resistance of 0.5 to 1.5 MΩ. The glass pipettes were filled with a solution of (in mM) CsCl 60, Cesium Aspartate 80, EGTA sodium 11, HEPES 10, Na2ATP 5 and pH 7.2 with CsOH. The bath solution consisted of (in mM) Na 30, […] chloride 100, CsCl 5, CaCl2 2, MgCl2 1.2, HEPES 10, Glucose 5 and pH 7.4 with NaOH. Once a seal was established, a small amount of suction was applied to obtain the whole cell configuration. From a holding potential of −100 mV, peak currents obtained at −10 mV were used for comparison. Cells were tested at 25° C. Data were sampled at 10 kHz and later filtered at 5 kHz for analysis. Currents were recorded and analyzed with an Axopatch 200B amplifier, Axon Digidata 1230A A/D converter and pClamp software (Molecular Devices Corporation, Sunnyvale, Calif.).

Na+ current = Na+ current (Homo sapiens, UniProt Q14524); conditions: acute exposure, dependent on PKC activation (Ward et al. 1997); cited from earlier work
Na+ current, sequence (Q14524 whole entry): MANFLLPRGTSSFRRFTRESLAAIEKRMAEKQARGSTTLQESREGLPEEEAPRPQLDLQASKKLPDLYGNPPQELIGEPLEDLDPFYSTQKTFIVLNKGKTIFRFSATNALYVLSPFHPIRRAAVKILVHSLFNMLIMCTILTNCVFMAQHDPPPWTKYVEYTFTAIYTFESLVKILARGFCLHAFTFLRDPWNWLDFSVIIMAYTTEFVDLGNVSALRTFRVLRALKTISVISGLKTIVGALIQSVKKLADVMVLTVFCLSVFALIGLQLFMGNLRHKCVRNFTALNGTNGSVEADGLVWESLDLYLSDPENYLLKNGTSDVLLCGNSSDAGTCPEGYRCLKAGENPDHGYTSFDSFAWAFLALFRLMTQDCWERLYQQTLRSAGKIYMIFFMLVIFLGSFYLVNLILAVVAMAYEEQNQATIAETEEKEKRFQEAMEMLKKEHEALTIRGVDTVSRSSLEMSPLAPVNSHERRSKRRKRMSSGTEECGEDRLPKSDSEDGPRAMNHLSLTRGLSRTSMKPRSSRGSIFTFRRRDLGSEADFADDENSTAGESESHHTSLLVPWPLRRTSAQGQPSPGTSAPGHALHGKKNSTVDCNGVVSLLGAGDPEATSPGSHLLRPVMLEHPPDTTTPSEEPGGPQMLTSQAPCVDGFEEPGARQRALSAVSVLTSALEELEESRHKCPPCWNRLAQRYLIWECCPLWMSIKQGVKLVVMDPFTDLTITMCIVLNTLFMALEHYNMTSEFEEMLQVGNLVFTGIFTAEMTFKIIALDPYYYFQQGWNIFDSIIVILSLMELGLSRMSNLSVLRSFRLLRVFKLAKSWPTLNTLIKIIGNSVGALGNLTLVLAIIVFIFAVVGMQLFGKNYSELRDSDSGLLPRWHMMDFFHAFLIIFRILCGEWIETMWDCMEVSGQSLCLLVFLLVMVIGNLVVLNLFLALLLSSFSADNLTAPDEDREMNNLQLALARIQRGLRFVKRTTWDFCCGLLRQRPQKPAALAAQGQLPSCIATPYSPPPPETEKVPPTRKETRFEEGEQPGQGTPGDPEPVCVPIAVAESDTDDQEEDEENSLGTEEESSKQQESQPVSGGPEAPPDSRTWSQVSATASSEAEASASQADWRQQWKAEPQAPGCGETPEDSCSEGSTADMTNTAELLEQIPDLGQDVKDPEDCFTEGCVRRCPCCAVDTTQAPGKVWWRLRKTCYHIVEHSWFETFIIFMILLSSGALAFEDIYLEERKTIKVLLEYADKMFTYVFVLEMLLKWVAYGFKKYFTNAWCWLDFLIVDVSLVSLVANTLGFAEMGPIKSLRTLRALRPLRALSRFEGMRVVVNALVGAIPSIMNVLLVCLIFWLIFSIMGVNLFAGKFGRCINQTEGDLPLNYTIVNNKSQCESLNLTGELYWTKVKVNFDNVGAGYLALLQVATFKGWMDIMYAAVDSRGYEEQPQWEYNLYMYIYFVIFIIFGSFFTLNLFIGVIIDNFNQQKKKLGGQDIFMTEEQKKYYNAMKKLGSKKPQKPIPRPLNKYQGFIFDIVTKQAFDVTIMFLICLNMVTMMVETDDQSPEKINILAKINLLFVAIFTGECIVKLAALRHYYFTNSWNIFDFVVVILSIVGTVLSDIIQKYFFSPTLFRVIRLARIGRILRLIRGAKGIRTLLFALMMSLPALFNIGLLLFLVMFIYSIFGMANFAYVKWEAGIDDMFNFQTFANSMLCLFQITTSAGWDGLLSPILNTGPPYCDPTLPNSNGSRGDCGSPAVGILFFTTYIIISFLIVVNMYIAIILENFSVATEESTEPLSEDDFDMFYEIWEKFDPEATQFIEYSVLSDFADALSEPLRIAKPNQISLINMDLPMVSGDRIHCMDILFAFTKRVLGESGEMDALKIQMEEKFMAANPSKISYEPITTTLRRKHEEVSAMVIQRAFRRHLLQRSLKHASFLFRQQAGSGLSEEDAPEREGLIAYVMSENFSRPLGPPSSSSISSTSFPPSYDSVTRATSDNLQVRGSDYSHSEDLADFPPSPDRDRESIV

T1 sequence (Q63369 1-433 limits assumed): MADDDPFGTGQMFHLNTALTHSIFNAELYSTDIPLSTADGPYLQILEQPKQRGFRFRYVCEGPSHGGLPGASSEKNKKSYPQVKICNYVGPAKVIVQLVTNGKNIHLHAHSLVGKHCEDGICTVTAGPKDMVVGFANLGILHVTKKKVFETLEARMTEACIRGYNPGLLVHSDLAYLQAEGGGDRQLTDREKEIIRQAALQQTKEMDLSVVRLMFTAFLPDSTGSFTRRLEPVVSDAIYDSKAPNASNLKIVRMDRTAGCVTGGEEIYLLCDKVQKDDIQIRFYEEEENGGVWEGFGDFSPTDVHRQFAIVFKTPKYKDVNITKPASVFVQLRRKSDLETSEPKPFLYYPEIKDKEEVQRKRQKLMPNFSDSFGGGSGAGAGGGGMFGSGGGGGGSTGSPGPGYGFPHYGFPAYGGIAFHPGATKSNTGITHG
T1 sequence (Q7TQN4 whole entry): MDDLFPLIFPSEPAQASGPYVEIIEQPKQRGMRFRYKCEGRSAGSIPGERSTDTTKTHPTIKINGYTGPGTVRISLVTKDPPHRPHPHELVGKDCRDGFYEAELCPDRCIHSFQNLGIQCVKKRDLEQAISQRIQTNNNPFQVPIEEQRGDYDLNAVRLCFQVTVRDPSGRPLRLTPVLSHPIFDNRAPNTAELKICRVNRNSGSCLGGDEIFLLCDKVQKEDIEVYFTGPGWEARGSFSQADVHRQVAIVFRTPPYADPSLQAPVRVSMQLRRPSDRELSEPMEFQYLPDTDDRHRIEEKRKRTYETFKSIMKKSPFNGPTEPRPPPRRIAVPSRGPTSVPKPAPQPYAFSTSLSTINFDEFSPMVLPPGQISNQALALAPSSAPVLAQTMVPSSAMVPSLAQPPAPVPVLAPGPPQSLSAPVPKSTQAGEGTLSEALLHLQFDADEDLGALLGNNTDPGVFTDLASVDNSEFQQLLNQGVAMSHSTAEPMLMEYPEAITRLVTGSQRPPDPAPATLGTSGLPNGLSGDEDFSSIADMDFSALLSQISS
T2 sequence (Q63369 1-433 limits assumed): as the sequence (Q63369 1-433 limits assumed) above
T2 sequence (Q7TQN4 whole entry): as the sequence (Q7TQN4 whole entry) above

## CC[C@H](C)[C@H](NC(=O)[C@H](Cc1ccc(O)cc1)NC(=O)[C@@H](NC(=O)[C@H](CCCNC(=N)N)NC(=O)[C@@H](N)CC(=O)O)C(C)C)C(=O)N[C@@H](Cc1cnc[nH]1)C(=O)N1CCC[C@H]1C(=O)N[C@@H](Cc1ccccc1)C(=O)O [AngII, angiotensin II]
H9c2 cardiomyocytes
  AngII concentrations tolerated (cell viability): 1 to 500 nM

## OO [H2O2]
[1]
  change in promoter activity of construct with mutated NF-κB binding site: no significant change in activity
[2]; isolated neonatal rat myocytes, 40 nM H2O2, 48 h
  reduction in Na+ channel mRNA: 45.4%
[3]; H9c2 nuclear extracts, 48 h treatment
  NF-κB binding activity to scn5a promoter probe: increased
[4]; H9c2, 20 μmol/L H2O2, 48 h
  reduction in Na+ channel mRNA: 46.9%
[5]; H9c2, AngII or H2O2 treatment
  NF-κB subunits on the cardiac Na+ channel promoter: formation of the complete p50-p65 NF-κB heterodimer
scn5a promoter
  depression of scn5a Na+ channel promoter activity: 42.3%
[6]
  decrease in peak Na+ current: 46%
Na+ current
  effect on inactivation of the Na+ current: slowing of inactivation

## O=C(/C=C/c1ccc(O)c(O)c1)OCCc1ccccc1 [CAPE, caffeic acid phenethyl ester]
[3]; CAPE 10 μM, H9c2 treated with H2O2
  effect on NF-κB binding to scn5a promoter probe: blocked
[5]; H9c2, CAPE
  effect on binding of p50 and p65 subunits to the channel promoter: could prevent biding of both subunits

## catalase
[2]; neonatal cardiomyocytes, pretreatment with PEG-catalase 250 U/mL, AngII 2 nM, 48 h
  effect on AngII-mediated downregulation of Na+ channel mRNA: prevented
[4]; H9c2, pretreatment with PEG-catalase 250 U/mL, AngII 100 nM, 48 h
  effect on AngII-mediated downregulation of Na+ channel mRNA: prevented
